Data from PubChem BioAssay AID1996.
≈ marks a conversion by molar mass, not a printed value.

Details: buffer; pH 7.4; 200.0 µM

Row | solubility kinetic | Structure (SMILES)
1 | 0.0647 mg/mL (≈ 147 µM) | COC(=O)c1cc(CNC(=O)C2CC(=O)N(c3ccc4c(c3)OCCO4)C2)ccc1OC (configuration not stated)
2 | > 0.0357 mg/mL | Cc1ccnc(N2C(=O)c3ccccc3C2=O)c1
3 | > 0.0348 mg/mL | Cl.NC(CO)C12CC3CC(CC(C3)C1)C2 (configuration not stated)
4 | > 0.0551 mg/mL | CCn1c(CCC(=O)O)nc2cc(S(=O)(=O)N3CCOCC3)ccc21
5 | > 0.0369 mg/mL | COC(=O)[C@H](CCSC)NC(=O)NC1CC1
6 | > 0.0523 mg/mL | Cc1ccc2cc(S(=O)(=O)NCCCN3CCOCC3)ccc2c1
7 | > 0.049 mg/mL | CCc1ccccc1NC(=O)CCN1C(=O)C2CC=CCC2C1=O (configuration not stated)
8 | > 0.0541 mg/mL | Cc1csc(NC(=O)CCCC(=O)O)c1-c1nc2ccccc2s1
9 | > 0.0364 mg/mL | S=C(NCC1CCCO1)NC1CCCCC1 (configuration not stated)
10 | 0.0308 mg/mL (≈ 130 µM) | CSc1ccc(NC(=O)/C=C/C(=O)O)cc1
11 | > 0.0463 mg/mL | CCCc1cc(=O)[nH]c(SCC(=O)Nc2cc(C)on2)n1
12 | 0.0393 mg/mL (≈ 140 µM) | NC(=O)CCC(NC(=S)Nc1ccccc1)C(=O)O (configuration not stated)
13 | 0.0014 mg/mL (≈ 3.87 µM) | O=C(CSc1nccc(-c2cccs2)n1)Nc1ccc(Cl)cc1
14 | 0.036 mg/mL (≈ 122 µM) | Cc1cccc(OC(C)C(=O)N2CCc3ccccc3C2)c1 (configuration not stated)
15 | 0.0178 mg/mL (≈ 78.3 µM) | Cc1ccc(OC(=O)Nc2ccccc2)cc1
16 | 0.0532 mg/mL (≈ 148 µM) | Cc1ccc(C(=O)NCC(=O)OCC(=O)NC2CCCCCCC2)cc1
17 | 0.0326 mg/mL (≈ 123 µM) | CCN(CC)C(=O)c1ccc(-c2cccs2)s1
18 | 0.0375 mg/mL (≈ 142 µM) | O=C(Nc1cccc([N+](=O)[O-])c1)N1CCCCCC1
19 | > 0.0296 mg/mL | S=C1NCN(Cc2ccco2)CN1
20 | 0.0103 mg/mL (≈ 22.3 µM) | Cc1ccc(S(=O)(=O)N2CCOCC2)cc1NC(=O)COC(=O)/C=C/c1ccc(F)cc1
21 | 0.0103 mg/mL (≈ 31.8 µM) | O=C(CCCNC(=O)c1ccc(Cl)cc1)Nc1nccs1
22 | 0.0288 mg/mL (≈ 116 µM) | CC(C)c1ccc(OCCCN2CCCC2)cc1
23 | > 0.0436 mg/mL | Cc1nc(-c2ccccn2)nc(N2CCOCC2)c1Cl

More lines, now with the values behind:

Row | Structure (SMILES) | solubility kinetic
24 | N#Cc1c(C(F)(F)F)cc(Cc2ccccc2)nc1SCC(=O)NCC(=O)O | > 0.0614 mg/mL
25 | Cc1cnc(C(=O)OCC(=O)NCc2ccc(Cl)cc2)cn1 | > 0.048 mg/mL
26 | O=S(=O)(c1ccc2oc(=S)[nH]c2c1)N1CCCCC1 | > 0.0448 mg/mL
27 | COc1ccc(NC(=O)c2cc(C)nc3ccccc23)cc1S(=O)(=O)N1CCOCC1 | 0.0061 mg/mL (≈ 13.8 µM)
28 | COc1ccc(NC(=S)Nc2ccccc2)cc1 | > 0.0388 mg/mL
29 | O=C(O)CC1(CC(=O)Nc2cccc(C(F)(F)F)c2)CCCC1 | > 0.0494 mg/mL
30 | COC(=O)Cc1c(O)ccn(Cc2ccc(Cl)c(Cl)c2)c1=O | > 0.0513 mg/mL
31 | CC(=O)N1CCN(Cc2nc(-c3cccc(Cl)c3)no2)CC1 | > 0.0481 mg/mL
32 | O=C1CSC(c2ccc([N+](=O)[O-])cc2)N1Cc1ccccc1 (configuration not stated) | 0.0325 mg/mL (≈ 103 µM)
33 | O=C(Nc1cccc(NC(=O)c2ccccc2)n1)c1ccccc1 | 0.0168 mg/mL (≈ 52.9 µM)
34 | COCCNc1oc(/C=C/c2ccccc2)nc1C#N | > 0.0404 mg/mL
35 | Cc1cccc(NC(=O)C2CCCN2C(=O)NC2CCCCC2)c1 (configuration not stated) | 0.0031 mg/mL (≈ 9.41 µM)
36 | CCOP(=O)(OCC)C(O)c1ccc(N(C)C)cc1 (configuration not stated) | > 0.0431 mg/mL
37 | O=S(=O)(c1ccc(SCCO)nc1)N1CCOCC1 | > 0.0457 mg/mL
38 | CCN(CC)CCC/C(=N\O)C(O)(c1ccccc1)c1ccccc1 | > 0.0511 mg/mL
39 | Cc1c(NC(=O)Nc2ccc3c(c2)OCO3)cccc1[N+](=O)[O-] | 0.0008 mg/mL (≈ 2.54 µM)
40 | COc1cc(NC(=O)c2ccc(S(=O)(=O)N(C)c3ccccc3OC)cc2)cc(OC)c1 | 0.0045 mg/mL (≈ 9.86 µM)
41 | CC(C)(C)c1ccc(Oc2ccc(N)cn2)cc1 | > 0.0363 mg/mL
42 | Cc1cccc(C)c1NC(=O)COC(=O)c1cccnc1 | > 0.0426 mg/mL
43 | O=C(COC(=O)Cc1ccc(S(=O)(=O)N2CCOCC2)s1)Nc1ccccc1Cl | > 0.0688 mg/mL
44 | CC1(C)CSC(=NCCc2ccccc2)N1 | > 0.0352 mg/mL
45 | CCOc1ccccc1C1NC(=O)CCC1[N+](=O)[O-] (configuration not stated) | > 0.0396 mg/mL
46 | CCOc1ccc(NC(=O)CCN2C(=O)c3cccc([N+](=O)[O-])c3C2=O)cc1 | 0.0164 mg/mL (≈ 42.8 µM)
47 | Cc1ccc(CC2C(=O)N(c3cc(C)ccc3C)C(=O)C2C)cc1 (configuration not stated) | 0.0046 mg/mL (≈ 14.3 µM)
